Laboratory results published in patent US9849113B2, “Methods of treating α adrenergic mediated conditions” (Allergan, Inc., priority 2008, dated 2017).

Assays:
Chung model rats = experiment: Chung model of chronic pain (spinal nerve ligation), tactile allodynia by von Frey hairs; type: in vivo, rat; conditions: single oral dose, FIG. 1
Protocol: Various concentrations of N-(2,3-dichlorobenzyl)-4,5-dihydro-1H-imidazol-2-amine were administered orally to Chung model rats. A model in accordance with Kim and Chung 1992, Pain […], pp 355-363 (Chung model), for chronic pain (in particular peripheral neuropathy) involves the surgical ligation of the L5 (and optionally the L6) spinal nerves on one side in experimental animals. Rats recovering from the surgery gain weight and display a level of general activity similar to that of normal rats. However, these rats develop abnormalities of the foot, wherein the hindpaw is moderately everted and the toes are held together. More importantly, the hindpaw on the side affected by the surgery appears to become sensitive to pain from low-threshold mechanical stimuli, such as that producing a faint sensation of touch in a human, within about 1 week following surgery. […]
Tactile allodynia is measured prior to and 30 minutes after drug administration using von Frey hairs that are a series of fine hairs with incremental differences in stiffness. […] The applied force has been calculated to range from 0.41 to 15.1 grams. […] The 50% paw withdrawal threshold is determined using the method of Dixon, W. J., Ann. […] The post-drug threshold is compared to the pre-drug threshold and the percent reversal of tactile sensitivity is calculated based on a normal threshold of 15.1 grams.

male ddC treated rats = experiment: Dideoxycytidine (ddC) model of neuropathic pain, allodynia by von Frey hairs; type: in vivo, rat; conditions: for % Allodynia Reversal: 15 min post dose / % Allodynia Reversal: 30 min post dose / % Allodynia Reversal: 60 min post dose / % Allodynia Reversal: 120 min post dose: mean ± SEM
Protocol: The ddC Model in the rat is a relatively new model of neuropathic pain discovered from clinical treatment of the AIDS virus. […] The experimental animal model in the rat for neuropathic pain by ddC injection manifests symptoms of human patients with causalgia. It is considered predictive of clinical activity against neuropathic pain (Joseph et al, 2004). Compound N-(2,3-dichlorobenzyl)-4,5-dihydro-1H-imidazol-2-amine was tested in this ddC model of allodynic pain. The compound was administered intraperitoneally to male ddC treated rats.
The animals are injected intraperitoneally (IP) with 25 mg/kg dideoxycytidine (ddC) using a sterile 30 gauge needle. Approximately 3 weeks after the ddC injection a painful neuropathy develops causing sensitivity to light touch on the animals' extremities. This neuropathy can last for 2-3 months. The animals show no spontaneous pain, only a heightened response to mechanical stimuli (von Frey hair stimulation). The allodynia is quantitated in the animals receiving ddC injections by stimulation with a series of 8 Von Frey hairs on the mid planter area of the hind paws in the up-down manner described by Dixon (Dixon, 1980).
Male Sprague-Dawley rats (Charles River, Wilmington, Mass.) weighing approximately 150-300 grams were used for these studies. All experimental animals received N-(2,3-dichlorobenzyl)-4,5-dihydro-1H-imidazol-2-amine or vehicle in a single acute IP dose. In all studies, baseline measurements were taken prior to drug administration and then at 15, 30, 60 and 120 minutes post acute IP dosing (vehicle or N-(2,3-dichlorobenzyl)-4,5-dihydro-1H-imidazol-2-amine). The % allodynia reversal is calculated as: [(Postdrug threshold—Predrug threshold)/(15-Predrug threshold)]×100.
N-(2,3-dichlorobenzyl)-4,5-dihydro-1H-imidazol-2-amine was dissolved in 42% DMSO (dimethyl sulfoxide; Sigma, St. Louis, Mo.) at a concentration of 3 mg/ml. This stock solution was kept frozen at −20° C., was thawed on the day of the study and diluted in dd-H2O to concentrations ranging from 0.01-0.1 mg/ml for IP dosing (dosing volume=1 ml/kg). The vehicle is dd-H2O for these studies.
Data were compiled and analyzed using Microsoft Excel and/or Kaleidagraph. Data are expressed as mean± standard error of the mean. Comparisons between drug treated and vehicle groups were made using a two-tailed, 2-sample, unpaired t-test. Comparisons between baselines (pre-drug) and post-drug time points were made using a two-tailed, 2-sample, paired t-test.

In the case of `Clc1cccc(CNC2=NCCN2)c1Cl` [N-(2,3-dichlorobenzyl)-4,5-dihydro-1H-imidazol-2-amine], the “Time of decrease of allodynia reversal to baseline” value (Chung model rats) is reported as “about 120 minutes”, the “Time of peak percent allodynia reversal” value (Chung model rats) is reported as 30 min and the “% Allodynia Reversal: 15 min post dose” value (male ddC treated rats; 0.01 mg/kg IP, n = 6) is reported as 1.8 ± 1.6%. For the same molecule, the “% Allodynia Reversal: 30 min post dose” value (male ddC treated rats; 0.01 mg/kg IP, n = 6) was 3.0 ± 1.7%, the “% Allodynia Reversal: 60 min post dose” value (male ddC treated rats; 0.01 mg/kg IP, n = 6) was 1.5 ± 2.0% and the “% Allodynia Reversal: 120 min post dose” value (male ddC treated rats; 0.01 mg/kg IP, n = 6) was 0.1 ± 1.3%. The “% Allodynia Reversal: 15 min post dose” value (male ddC treated rats; 0.03 mg/kg IP, n = 6) was 34 ± 3.9 %, the “% Allodynia Reversal: 30 min post dose” value (male ddC treated rats; 0.03 mg/kg IP, n = 6) was 67% and the “% Allodynia Reversal: 60 min post dose” value (male ddC treated rats; 0.03 mg/kg IP, n = 6) was 20 ± 3.7 %. For the same molecule, the “% Allodynia Reversal: 120 min post dose” value (male ddC treated rats; 0.03 mg/kg IP, n = 6) was 2.0 ± 2.6%, the “% Allodynia Reversal: 30 min post dose” value (male ddC treated rats; 0.03 mg/kg IP, n = 6, listed as 200762) was 67 ± 9.0 % and the “% Allodynia Reversal: 15 min post dose” value (male ddC treated rats; 0.1 mg/kg IP, n = 6) was 58 ± 9.1 %. For the same molecule, the “% Allodynia Reversal: 30 min post dose” value (male ddC treated rats; 0.1 mg/kg IP, n = 6) was 86%, the “% Allodynia Reversal: 60 min post dose” value (male ddC treated rats; 0.1 mg/kg IP, n = 6) was 34 ± 2.5 % and the “% Allodynia Reversal: 120 min post dose” value (male ddC treated rats; 0.1 mg/kg IP, n = 6) was 0.9 ± 1.2%. For the same molecule, the “% Allodynia Reversal: 30 min post dose” value (male ddC treated rats; 0.1 mg/kg IP, n = 6, listed as 200762) was 86 ± 6.3 %, the “Minimal statistically significant efficacious dose” value (male ddC treated rats; IP, male rats) was 0.03 mg/kg and the No-effect dose (male ddC treated rats; IP, male rats) was 0.01 mg/kg.
